As usually defined, the Kd is the equilibrium constant for the complex coming apart. The low end stands for a tighter complex, the high end for a looser complex.

In one series the target is Human TNFα (Homo sapiens, UniProt P01375). Kind of series: TNFα - Adalimumab/Adalimumab-Siglec Ligand Conjugate SPR Binding Assays. As to conditions: TNFα analyte, test article on Protein A chip, 1:1 binding model. Here is the method:
Binding experiments of Adalimumab Conjugates were performed on a Biacore 8K+ using a Cytiva Protein A Chip Series S (Cat #29127555). Briefly, conjugates were diluted in running buffer (HBS-EP+) and scouted for a concentration yielding about 30 RU of response after 20 seconds of injection at 30 μL/min on the active surface (flow cell 2). Human TNFα was serially diluted in running buffer 1:1 from 100 nM to 0.1953 nM and then injected across both the reference (flow cell 1) and active surface (flow cell 2) for 120 seconds at 30 μL/min and allowed to dissociate for 600 s. […] Sensorgrams were fitted to a 1:1 binding model in Biacore Insight Evaluation Software Version 3.0.11.15423.

The test system of series [1] is C57BL/6 mice. Kind of series: Anti-drug antibody (serum IgG titer) response to adalimumab and conjugates in mice. In kind it is in vivo, mouse. Here is the method:
To evaluate the production of antibodies specific to adalimumab and/or adalimumab-Siglec Ligand conjugates, C57BL/6 mice were immunized through intravenous injection with adalimumab or Siglec Ligand-conjugated adalimumab. On study day −1, animals were randomized into treatment groups based on body weight. On study day 0, animals were bled for baseline serum and then injected IV with adalimumab or the adalimumab-Siglec Ligand conjugates. The individual antigens were prepared by making a 0.8 mg/ml antigen solution in sterile buffered saline. Animals were then injected with 0.1 ml (^˜4 ml/kg) of the 0.8 mg/ml antigen via the tail vein. The total dose based on a 20 g mouse would be 4 mg/kg. Animals were bled via the retro-orbital sinus weekly throughout the study under inhaled isoflurane anesthesia. On study day, 28 animals were anesthetized with inhaled isoflurane anesthesia and then bled via cardiac puncture and then sacrificed by cervical dislocation. […]
ADA assays were performed on 96-well assay plates (Nunc Plates, Black 96-Well Immuno Plates, Thermo Scientific, 437111) coated with antigen, as follows. […] The excitation and emission settings for the QuantaBlu Fluorogenic Peroxide Substrates are 325 nm and 420 nm and the relative florescence units were measured using a SpectraMax plate reader. […] Titers were determined by the dilution of serum that gives a 2× OD above background. […]

Series [2] concerns C57BL/6 mice. Briefly: Serum IgG response to hen egg white lysozyme (HEL) in mice. The format is in vivo, mouse. As to conditions: Example 20: 4 weekly 200 μg i.v. doses (days 0, 7, 14, and 21), day 27. As for the experimental part: On study day −1, animals were randomized into treatment groups based on body weight. On study day 0, animals were bled for baseline serum and then injected IV with adalimumab, adalimumab-Siglec Ligand conjugate, or PBS vehicle. The individual adalimumab-based antigens were prepared by making a 0.8 mg/ml antigen solution in sterile buffered saline. Animals were then injected with 0.1 ml (^˜4 ml/kg) of the 0.8 mg/ml antigen via the tail vein. The total dose based on a 20 g mouse would be 4 mg/kg. Mice were subsequently administered 200 μg HEL on days 7, 14, and 21. Whole blood was collected into Microvette EDTA capillary collection tubes (Sarstedt Inc) and then further processed following the manufacturer's instructions for serum collection. Samples were stored at −80 C until analysis was performed.
ADA assays were performed on 96-well assay plates (Nunc Plates, Black 96-Well Immuno Plates, Thermo Scientific, 437111) coated with antigen as follows. […] The excitation and emission settings for the QuantaBlu Fluorogenic Peroxide Substrates are 325 nm and 420 nm and the relative florescence units were measured using a SpectraMax plate reader. […] Titers were determined by the dilution of serum that gives a 2× OD above background.
On study day −1, animals were randomized into treatment groups based on body weight. […] Serum IgG levels against HEL/HEL conjugate were measured at day 27. […]

Entries after “also recorded” stand apart in the source; their conditions may differ.

Sequence of Human TNFα (P01375 77-233 limits assumed): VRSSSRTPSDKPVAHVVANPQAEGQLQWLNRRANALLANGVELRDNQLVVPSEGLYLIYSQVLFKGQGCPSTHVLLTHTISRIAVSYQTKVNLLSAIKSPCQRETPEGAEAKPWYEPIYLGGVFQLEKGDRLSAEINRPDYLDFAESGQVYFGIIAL

Turning to Adalimumab, on Human TNFα, the Kd was determined as 1.46 nM, the “Rmax (RU)” value stood at 10.6 RU, the “ka” value is 245000 M⁻¹ s⁻¹ and the “kd” value turned out to be 0.000357 s⁻¹. Moreover, the “anti-drug antibody response (mouse serum IgG titer against adalimumab/adalimumab conjugates)” value with C57BL/6 mice [1] (Example 14: single 4 mg/kg i.v. dose, days 14, 21, and 28, GAL and PEG linkers, listed as adalimumab hIgG1, 4 mg/kg) was “highly immunogenic in mice; also recorded: high mouse IgG serum titers”. Also, the “IgG response against adalimumab/adalimumab conjugate” value in the series on C57BL/6 mice [1] (Example 19: 4 mg/kg day 0, then weekly 200 μg HEL, day 28) is on record as “strong IgG response”.
“HEL: hen egg white lysozyme (Sigma, L4919-1G), standard immunogen [reference compound]”: in the series on C57BL/6 mice [2], the “IgG response to HEL/HEL conjugate (immunogenicity)” value is “vigorous IgG responses to HEL”.
Same read-out and setting: as for “Siglec Ligand-HEL conjugates: hen egg white lysozyme conjugated with monovalent BPC-Neu5Gc PEG ligand-linker, LDR of 1.6”, the entry is “completely suppressed for immunogenicity”.

Values taken from patent publication US20240238422A1 (Osprey Biopharmaceuticals, Inc., priority 2021, published 2024).
